How the values were obtained:
Test in all cases: relative viability (nuclei count vs DMSO), 5 days (fraction); higher = more cells survive
Dinaciclib + Bortezomib = compound: CCc1cnn2c(NCc3ccc[n+]([O-])c3)cc(N3CCCC[C@H]3CCO)nc12 [Dinaciclib] + CC(C)C[C@H](NC(=O)[C@H](Cc1ccccc1)NC(=O)c1cnccn1)B(O)O [Bortezomib] (partner 0.002 µM)
In short: (§1)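 Medians of duplicate plates are given as relative viability. That measure is the nuclei count in treated wells divided by the count in vehicle wells. Counts were taken on 4× images of lung cancer cell lines in 1536-well plates, 5 days after pin-tool dosing the day after seeding with one drug alone or a fixed anchor-drug dose plus five library-drug doses (not always all listed) in √10 steps.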

Dinaciclib + OSI-027 = compound: CCc1cnn2c(NCc3ccc[n+]([O-])c3)cc(N3CCCC[C@H]3CCO)nc12 [Dinaciclib] + COc1cccc2cc(-c3nc([C@H]4CC[C@H](C(=O)O)CC4)n4ncnc(N)c34)[nH]c12 [OSI-027] (partner 0.5 µM)
In short: as §1

Dinaciclib + Crizotinib = compound: CCc1cnn2c(NCc3ccc[n+]([O-])c3)cc(N3CCCC[C@H]3CCO)nc12 [Dinaciclib] + C[C@@H](Oc1cc(-c2cnn(C3CCNCC3)c2)cnc1N)c1c(Cl)ccc(F)c1Cl [Crizotinib] (partner 1 µM)
In short: as §1

Dinaciclib + Pemetrexed = compound: CCc1cnn2c(NCc3ccc[n+]([O-])c3)cc(N3CCCC[C@H]3CCO)nc12 [Dinaciclib] + Nc1nc2[nH]cc(CCc3ccc(C(=O)N[C@@H](CCC(=O)O)C(=O)O)cc3)c2c(=O)[nH]1 [Pemetrexed] (partner 0.2 µM)
In short: as §1

Dinaciclib + Decitabine = compound: CCc1cnn2c(NCc3ccc[n+]([O-])c3)cc(N3CCCC[C@H]3CCO)nc12 [Dinaciclib] + Nc1ncn([C@H]2C[C@H](O)[C@@H](CO)O2)c(=O)n1 [Decitabine] (partner 2 µM)
In short: as §1

Row | Cell Line | relative viability (Dinaciclib + Bortezomib; first compound 0.009487 µM) | relative viability (Dinaciclib + Bortezomib; first compound 0.03 µM) | relative viability (Dinaciclib + Bortezomib; first compound 0.09487 µM) | relative viability (Dinaciclib + Bortezomib; first compound 0.3 µM) | relative viability (Dinaciclib + OSI-027; first compound 0.009487 µM) | relative viability (Dinaciclib + OSI-027; first compound 0.03 µM) | relative viability (Dinaciclib + OSI-027; first compound 0.09487 µM) | relative viability (Dinaciclib + OSI-027; first compound 0.3 µM) | relative viability (Dinaciclib + Crizotinib; first compound 0.009487 µM) | relative viability (Dinaciclib + Crizotinib; first compound 0.03 µM) | relative viability (Dinaciclib + Crizotinib; first compound 0.09487 µM) | relative viability (Dinaciclib + Crizotinib; first compound 0.3 µM) | relative viability (Dinaciclib + Pemetrexed; first compound 0.009487 µM) | relative viability (Dinaciclib + Pemetrexed; first compound 0.03 µM) | relative viability (Dinaciclib + Pemetrexed; first compound 0.09487 µM) | relative viability (Dinaciclib + Pemetrexed; first compound 0.3 µM) | relative viability (Dinaciclib + Decitabine; first compound 0.009487 µM) | relative viability (Dinaciclib + Decitabine; first compound 0.03 µM) | relative viability (Dinaciclib + Decitabine; first compound 0.09487 µM) | relative viability (Dinaciclib + Decitabine; first compound 0.3 µM)
1 | HCC-366 | 0.779 | 0.0262 | 0.0219 | 0.0175 | 0.924 | 0.0747 | 0.0323 | 0.0369 | 0.358 | 0.0242 | 0.0111 | 0.0131 | 0.171 | 0.0414 | 0.0345 | 0.0329 | 0.237 | 0.133 | 0.0321 | 0.0394
2 | HCC-827 | 0.986 | 0.746 | 0.213 | 0.178 | 0.887 | 0.565 | 0.129 | 0.116 | 0.946 | 0.333 | 0.16 | 0.15 | 0.27 | 0.129 | 0.122 | 0.13 | 0.351 | 0.131 | 0.12 | 0.137
3 | HOP-62 | 0.643 | 0.0795 | 0.0423 | 0.0609 | 0.72 | 0.446 | 0.139 | 0.0825 | 0.841 | 0.236 | 0.0602 | 0.0489 | 0.255 | 0.0991 | 0.094 | 0.0662 | 0.204 | 0.21 | 0.0932 | 0.0689
4 | IA-LM | 0.72 | 0.0186 | 0.019 | 0.014 | – | – | – | – | 0.725 | 0.0572 | 0.0441 | 0.0336 | – | – | – | – | – | – | – | –
5 | LC-2-ad | 1.05 | 0.0825 | 0.0622 | 0.0691 | 0.58 | 0.251 | 0.247 | 0.227 | 0.441 | 0.119 | 0.109 | 0.116 | 0.28 | 0.158 | 0.14 | 0.131 | 0.745 | 0.541 | 0.158 | 0.151
6 | LCLC-97TM1 | 0.0824 | 0.0484 | 0.0476 | 0.0667 | 0.298 | 0.167 | 0.122 | 0.113 | 0.346 | 0.092 | 0.0991 | 0.103 | 0.152 | 0.0671 | 0.0619 | 0.062 | 0.167 | 0.0798 | 0.0518 | 0.0627
7 | LCLC-103H | 1.04 | 0.998 | 0.451 | 0.108 | 0.451 | 0.483 | 0.111 | 0.109 | 1.06 | 1.03 | 0.329 | 0.123 | 0.465 | 0.566 | 0.223 | 0.217 | 0.754 | 0.648 | 0.297 | 0.242
8 | LK-2 | – | – | – | – | 0.218 | 0.196 | 0.16 | 0.131 | 0.232 | 0.202 | 0.21 | 0.18 | 0.38 | 0.0867 | 0.0811 | 0.0749 | 0.27 | 0.119 | 0.0855 | 0.0805
9 | NCI-H358 | – | – | – | – | 0.49 | 0.0844 | 0.0665 | 0.0776 | 0.373 | 0.0972 | 0.135 | 0.144 | 0.186 | 0.108 | 0.0948 | 0.0955 | 0.157 | 0.0817 | 0.075 | 0.0916
10 | NCI-H727 | 0.869 | 0.231 | 0.217 | 0.238 | 0.468 | 0.317 | 0.285 | 0.326 | 0.534 | 0.171 | 0.174 | 0.183 | – | – | – | – | 0.916 | 0.37 | 0.413 | 0.373
11 | NCI-H1395 | – | – | – | – | 0.631 | 0.311 | 0.251 | 0.215 | – | – | – | – | 0.505 | 0.231 | 0.213 | 0.26 | 0.649 | 0.286 | 0.286 | 0.251
12 | NCI-H1563 | 1.13 | 0.485 | 0.368 | 0.387 | 0.795 | 0.416 | 0.297 | 0.27 | 1.03 | 0.379 | 0.34 | 0.303 | 0.704 | 0.393 | 0.161 | 0.13 | – | – | – | –
13 | NCI-H1703 | 0.366 | 0.122 | 0.132 | 0.114 | – | – | – | – | 0.61 | 0.229 | 0.0855 | 0.106 | – | – | – | – | – | – | – | –
14 | NCI-H1793 | – | – | – | – | 0.268 | 0.13 | 0.107 | 0.123 | – | – | – | – | 0.63 | 0.139 | 0.142 | 0.13 | 0.488 | 0.206 | 0.127 | 0.149
15 | NCI-H1944 | – | – | – | – | 0.413 | 0.156 | 0.139 | 0.141 | 1.14 | 0.143 | 0.136 | 0.126 | 0.712 | 0.119 | 0.14 | 0.136 | 0.44 | 0.199 | 0.137 | 0.156
16 | NCI-H2170 | – | – | – | – | 0.741 | 0.156 | 0.152 | 0.14 | 0.86 | 0.188 | 0.157 | 0.181 | 0.292 | 0.133 | 0.125 | 0.119 | 0.471 | 0.212 | 0.141 | 0.146
17 | NCI-H2228 | 0.934 | 0.0992 | 0.119 | 0.102 | 0.522 | 0.167 | 0.0767 | 0.124 | 0.526 | 0.178 | 0.135 | 0.103 | 0.309 | 0.152 | 0.0897 | 0.0862 | – | – | – | –
18 | NCI-H2342 | – | – | – | – | 0.559 | 0.532 | 0.32 | 0.315 | – | – | – | – | 0.851 | 0.56 | 0.3 | 0.274 | 0.78 | 0.583 | 0.269 | 0.284
19 | SK-MES-1 | – | – | – | – | 0.559 | 0.13 | 0.136 | 0.149 | 0.969 | 0.18 | 0.191 | 0.155 | 0.799 | 0.192 | 0.179 | 0.168 | 0.362 | 0.157 | 0.156 | 0.166
20 | SW 900 | – | – | – | – | 0.578 | 0.103 | 0.0689 | 0.098 | – | – | – | – | 0.448 | 0.195 | 0.166 | 0.153 | 0.408 | 0.325 | 0.182 | 0.151

— the supplement of paper PMC10307832
